Results on 9 compounds are retold here after US20260022142A1, “MACROCYCLIC IMMUNOMODULATORS” (Bristol-Myers Squibb Company, priority 2022, published 2026).

The structures appear in SMILES notation. pIC50: −log10 of the molar value. Bridge positions count the residues as written; N and C are the ends. Square brackets hold non-standard residues; d marks the D form. Peptide text beside a SMILES is read from it. * marks the point of attachment. ξ: configuration not given here. Phe(4-COOH) = N[C@@H](Cc1ccc(C(=O)O)cc1)C(=O)O; Bip = N[C@@H](Cc1ccc(-c2ccccc2)cc1)C(=O)O; Tyr(3-F) = N[C@@H](Cc1ccc(O)c(F)c1)C(=O)O; Phe(3-Me) = Cc1cccc(C[C@H](N)C(=O)O)c1; NH(CH2)12COOH = O=C(O)CCCCCCCCCCCCN*; Val(3-OH) = CC(C)(O)[C@H](N)C(=O)O; hArg = N=C(N)NCCCC[C@H](N)C(=O)O; 4Pal = N[C@@H](Cc1ccncc1)C(=O)O; 2Thi = N[C@@H](Cc1cccs1)C(=O)O; Cha = N[C@@H](CC1CCCCC1)C(=O)O; Cit = NC(=O)NCCC[C@H](N)C(=O)O; aThr = C[C@H](O)[C@H](N)C(=O)O; Thr(3ξ) = CC(O)[C@H](N)C(=O)O; 12Ado = NCCCCCCCCCCCC(=O)O; dNle = CCCC[C@@H](N)C(=O)O; hCys = N[C@@H](CCS)C(=O)O; Carboxymethyl = O=C(O)C*; Orn = NCCC[C@H](N)C(=O)O; Aun = NCCCCCCCCCCC(=O)O; Dab = NCC[C@H](N)C(=O)O; Dap = NC[C@H](N)C(=O)O; AEEA = NCCOCCOCC(=O)O; ξDab = NCCC(N)C(=O)O

In the experiment the target is T1, PD-1/PD-L1 interaction (PE-labeled human PD-L1-Ig binding to Jurkat cell line over-expressing human PD-1) (Homo sapiens, UniProt Q15116).
T1 construct: expressed in transfected cells; host or cells: Jurkat
T1 sequence (Q15116 25-288): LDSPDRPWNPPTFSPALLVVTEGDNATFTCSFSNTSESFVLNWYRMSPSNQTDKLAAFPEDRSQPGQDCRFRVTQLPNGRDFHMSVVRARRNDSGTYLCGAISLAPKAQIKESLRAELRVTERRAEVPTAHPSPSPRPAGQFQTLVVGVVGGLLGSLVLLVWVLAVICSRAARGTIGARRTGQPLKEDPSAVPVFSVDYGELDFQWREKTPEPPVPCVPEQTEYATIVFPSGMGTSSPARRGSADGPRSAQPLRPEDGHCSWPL
The experiment is described as follows: Jurkat-PD-1 Cell Binding High-Content Screening Assay (CBA). In kind it is cell-based. The settings on record: Jurkat cell line over-expressing human PD-1; PE-labeled PD-L1-Ig 20 nM final; read-out: Jurkat hPD1-PDL1 IC50. The method, boiled down: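 Jurkat cells over-expressing human PD-1 (8×10^3 per well, DMEM/10% FCS) preincubated with compound 2 h at 37° C, then PE-labeled human PD-L1-Ig (20 nM final) added for 1 h. Cells fixed with paraformaldehyde, Hoechst-stained, and bound fluorescence quantified by high-content imaging.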
As for `CC(C)C[C@H]1NC(=O)[C@H](CCCN)NC(=O)[C@H](C(C)C)NC(=O)[C@H](Cc2ccc(-c3ccccc3)cc2)NC(=O)[C@H](C(C)C)NC(=O)[C@H](Cc2c[nH]c3ccccc23)NC(=O)[C@H](CC(=O)O)NC(=O)[C@H](Cc2ccc(OCC(=O)O)cc2)NC(=O)[C@H](CCCCNC(=N)N)NC(=O)CSC[C@@H](C(=O)NCCOCCOCC(=O)N[C@@H](CCCCN)C(=O)NCCCCCCCCCCC(=O)O)NC(=O)[C@H]([C@H](C)O)NC(=O)[C@H](C(C)C)NC(=O)[C@H](CC2CCCCC2)NC(=O)[C@H](CC(N)=O)NC1=O` [Compound 3163] ({CH2CO}-[hArg]Y(Carboxymethyl)DWV[Bip]V[Orn][dL]N[Cha]V[aThr]C[AEEA]K[Aun]-OH; thioether N-14), the pIC50 was 7.65.
As for `Cc1cccc(C[C@@H]2NC(=O)[C@H](CC(=O)O)NC(=O)[C@H](Cc3ccc(OCC(=O)O)cc3)NC(=O)[C@H](Cc3ccc(OCC(=O)O)cc3)NC(=O)CSC[C@@H](C(=O)NC(CCN)C(=O)NCCCCCCCCCCCC(=O)O)NC(=O)[C@H](C(C)O)NC(=O)[C@H](C(C)C)NC(=O)[C@H](CC3CCCCC3)NC(=O)[C@H](Cc3cnc[nH]3)NC(=O)[C@@H](CC(C)C)NC(=O)[C@H](CCCN)NC(=O)[C@H](CCCNC(N)=O)NC(=O)[C@H](Cc3ccc(-c4ccccc4)cc3)NC(=O)[C@H](C(C)C)NC2=O)c1` (stereo partly drawn) [Compound 3502] ({CH2CO}-Y(Carboxymethyl)Y(Carboxymethyl)D[Phe(3-Me)]V[Bip][Cit][Orn][dL]H[Cha]V[Thr(3ξ)]C[ξDab][12Ado]-OH; thioether N-14), the figure is 7.20; as for `Cc1cccc(C[C@@H]2NC(=O)[C@H](CC(=O)O)NC(=O)[C@H](Cc3ccc(OCC(=O)O)cc3)NC(=O)[C@H](CN)NC(=O)CSCC[C@@H](C(=O)N[C@@H](C)C(=O)N[C@@H](CCC(=O)O)C(=O)NCCCCCCCCCCC(=O)O)NC(=O)[C@H]([C@@H](C)O)NC(=O)[C@H](C(C)C)NC(=O)[C@H](CC3CCCCC3)NC(=O)[C@H](CCN)NC(=O)[C@@H](CC(C)C)NC(=O)[C@H](CCCN)NC(=O)[C@H](CCCNC(N)=O)NC(=O)[C@H](Cc3ccc(-c4ccccc4)cc3)NC(=O)[C@H](C(C)C)NC2=O)c1` [Compound 2781] ({CH2CO}-[Dap]Y(Carboxymethyl)D[Phe(3-Me)]V[Bip][Cit][Orn][dL][Dab][Cha]VT[hCys]AE[Aun]-OH; thioether N-14), 7.13; as for `CCCC[C@H]1NC(=O)[C@H](CCCN)NC(=O)[C@H](C(C)C)NC(=O)[C@H](Cc2ccc(-c3ccccc3)cc2)NC(=O)[C@H](C(C)C)NC(=O)[C@H](Cc2cccc(C)c2)NC(=O)[C@H](CC(=O)O)NC(=O)[C@H](Cc2ccc(OCC(=O)O)cc2)NC(=O)[C@H](CN)NC(=O)CSC[C@@H](C(=O)N[C@@H](CCN)C(=O)NCCOCCOCC(=O)NCCCCCCCCCCC(=O)O)NC(=O)[C@H](CN)NC(=O)[C@H](C(C)C)NC(=O)[C@H](CC2CCCCC2)NC(=O)[C@H](CCN)NC1=O` [Compound 2680] ({CH2CO}-[Dap]Y(Carboxymethyl)D[Phe(3-Me)]V[Bip]V[Orn][dNle][Dab][Cha]V[Dap]C[Dab][AEEA][Aun]-OH; thioether N-14), 7.88.
As for `Cc1cccc(C[C@@H]2NC(=O)[C@H](CC(=O)O)NC(=O)[C@H](Cc3ccc(OCC(=O)O)cc3)NC(=O)[C@H](Cc3ccncc3)NC(=O)CSC[C@@H](C(=O)N[C@@H](CCN)C(=O)NCCCCCCCCCCC(=O)O)NC(=O)[C@H](CO)NC(=O)[C@H](C(C)(C)O)NC(=O)[C@H](CC3CCCCC3)NC(=O)[C@H](CCN)NC(=O)[C@@H](CC(C)C)NC(=O)[C@H](CCCN)NC(=O)[C@H](Cc3ccc(OCC(=O)O)cc3)NC(=O)[C@H](Cc3ccc(-c4ccccc4)cc3)NC(=O)[C@H](Cc3cccs3)NC2=O)c1` [Compound 2188] ({CH2CO}-[4Pal]Y(Carboxymethyl)D[Phe(3-Me)][2Thi][Bip]Y(Carboxymethyl)[Orn][dL][Dab][Cha][Val(3-OH)]SC[Dab][Aun]-OH; thioether N-14), the figure is 8.03; as for `Cc1cccc(C[C@@H]2NC(=O)[C@H](CC(=O)O)NC(=O)[C@H](Cc3ccc(OCC(=O)O)cc3)NC(=O)[C@H](C(C)O)NC(=O)CSC[C@@H](C(=O)N[C@H](CC(N)=O)C(=O)NCCCCCCCCCCC(=O)O)NC(=O)[C@H](C(C)O)NC(=O)[C@H](C(C)C)NC(=O)[C@H](CC3CCCCC3)NC(=O)[C@H](CCN)NC(=O)[C@@H](CC(C)C)NC(=O)[C@H](CCCN)NC(=O)[C@H](Cc3ccc(OCC(=O)O)cc3)NC(=O)[C@H](Cc3ccc(-c4ccccc4)cc3)NC(=O)[C@H](Cc3ccc(OCC(=O)O)cc3)NC2=O)c1` (stereo partly drawn) [Compound 3490] ({CH2CO}-[Thr(3ξ)]Y(Carboxymethyl)D[Phe(3-Me)]Y(Carboxymethyl)[Bip]Y(Carboxymethyl)[Orn][dL][Dab][Cha]V[Thr(3ξ)]C[dN][Aun]-OH; thioether N-14), 8.23.
As for `Cc1cccc(C[C@@H]2NC(=O)[C@H](CC(=O)O)NC(=O)[C@H](Cc3ccc(OCC(=O)O)cc3)NC(=O)[C@H](CCCNC(=N)N)NC(=O)CSC[C@@H](C(=O)N[C@@H](CCN)C(=O)NCCCCCCCCCCC(=O)O)NC(=O)[C@H](CO)NC(=O)[C@H](C(C)C)NC(=O)[C@H](CC3CCCCC3)NC(=O)[C@H](CCN)NC(=O)[C@@H](CC(C)C)NC(=O)[C@H](CCCN)NC(=O)[C@H](Cc3ccncc3)NC(=O)[C@H](Cc3ccc(-c4ccccc4)cc3)NC(=O)[C@H](Cc3ccc(OCC(=O)O)cc3)NC2=O)c1` [Compound 2115] ({CH2CO}-RY(Carboxymethyl)D[Phe(3-Me)]Y(Carboxymethyl)[Bip][4Pal][Orn][dL][Dab][Cha]VSC[Dab][Aun]-OH; thioether N-14), the figure is 7.53; as for `Cc1cccc(C[C@@H]2NC(=O)[C@H](CC(=O)O)NC(=O)[C@H](Cc3ccc(OCC(=O)O)cc3)NC(=O)[C@H](Cc3c[nH]cn3)NC(=O)CSC[C@@H](C(=O)N[C@@H](CCN)C(=O)NCCOCCOCC(=O)NCCOCCOCC(=O)NCCCCCCCCCCCCC(=O)O)NC(=O)[C@H](CO)NC(=O)[C@H](C(C)(C)O)NC(=O)[C@H](CC3CCCCC3)NC(=O)[C@H](CCN)NC(=O)[C@@H](CC(C)C)NC(=O)[C@H](CCCN)NC(=O)[C@H](Cc3ccc(C(=O)O)cc3)NC(=O)[C@H](Cc3ccc(-c4ccccc4)cc3)NC(=O)[C@H](Cc3ccc(C(=O)O)cc3)NC2=O)c1` [Compound 2895] ({CH2CO}-HY(Carboxymethyl)D[Phe(3-Me)][Phe(4-COOH)][Bip][Phe(4-COOH)][Orn][dL][Dab][Cha][Val(3-OH)]SC[Dab][AEEA][AEEA]-{NH(CH2)12COOH}; thioether N-14), 7.94.
In the case of `CC(C)C[C@H]1NC(=O)[C@H](CCCN)NC(=O)[C@H](C(C)C)NC(=O)[C@H](Cc2ccc(-c3ccccc3)cc2)NC(=O)[C@H](C(C)C)NC(=O)[C@H](Cc2ccc(O)c(F)c2)NC(=O)[C@H](CC(=O)O)NC(=O)[C@H](Cc2ccc(OCC(=O)O)cc2)NC(=O)[C@H](CN)NC(=O)CSC[C@@H](C(=O)N[C@@H](CCN)C(=O)NCCCCCCCCCCC(=O)O)NC(=O)[C@H](CCCCN)NC(=O)[C@H](C(C)C)NC(=O)[C@H](CC2CCCCC2)NC(=O)[C@H](CCN)NC1=O` [Compound 2030] ({CH2CO}-[Dap]Y(Carboxymethyl)D[Tyr(3-F)]V[Bip]V[Orn][dL][Dab][Cha]VKC[Dab][Aun]-OH; thioether N-14), the pIC50 is 8.14.
